A value given as a limit tells only on which side of the number the result lay.

For this experiment, the target named is T1, JAK2 (JH1domain-catalytic, Y1007F,Y1008F) kinase (Homo sapiens, UniProt O60674, Y1007F/Y1008F).
T1 construct: JAK2 (JH1domain-catalytic, Y1007F,Y1008F) kinase was expressed as N-terminal fusion; made in house; host or cells: transiently transfected HEK293 cells
As to the kind of experiment: JAK2 JH1 Domain Binding Assay. As to conditions: qPCR readout.

T1 sequence (O60674 849-1124 Y1007F/Y1008F limits assumed): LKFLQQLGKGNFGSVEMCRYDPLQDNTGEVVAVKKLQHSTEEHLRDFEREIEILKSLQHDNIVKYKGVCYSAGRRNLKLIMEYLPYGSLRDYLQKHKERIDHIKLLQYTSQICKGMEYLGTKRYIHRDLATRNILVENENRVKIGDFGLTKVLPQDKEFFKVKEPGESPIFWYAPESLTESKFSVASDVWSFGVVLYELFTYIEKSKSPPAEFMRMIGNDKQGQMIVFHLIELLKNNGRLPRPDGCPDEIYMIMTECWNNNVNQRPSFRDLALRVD

Turning to `Cn1cc(C(F)(F)F)cc(Nc2nc3ncc(Oc4cnc5[nH]nc(C(F)(F)F)c5c4)c(C#N)c3n2C)c1=O` [Example I-333, 1-methyl-2-((1-methyl-2-oxo-5-(trifluoromethyl)-1,2-dihydropyridin-3-yl)amino)-6-((3-(trifluoromethyl)-1H-pyrazolo[3,4-b]pyridin-5-yl)oxy)-1H-imidazo[4,5-b]pyridine-7-carbonitrile], the Kd fell in the range of 0.01 to 0.05 µM. The compound `Cn1c(Nc2cc(C(C)(C)C)n([C@@H]3COC[C@H]3O)n2)nc2ncc(Oc3cnn4ccncc34)c(C#N)c21` (single isomer, unassigned) [Example I-150-b] returned a Kd of 0.01 to 0.05 µM. As for `Cn1c(Nc2nc([C@@H]3CCOC3)c(C(C)(C)C)s2)nc2ncc(Oc3cnn4ccnc4c3)c(Cl)c21` (single isomer, unassigned) [Example I-56-b], the figure is 0.01 to 0.05 µM. For the compound `COCCOc1nccn2ncc(Oc3cnc4nc(Nc5cc(C6CC6)cn(C)c5=O)n(C)c4c3Cl)c12` [Example I-135, 3-((7-chloro-6-((4-(2-methoxyethoxy)pyrazolo[1,5-a]pyrazin-3-yl)oxy)-1-methyl-1H-imidazo[4,5-b]pyridin-2-yl)amino)-5-cyclopropyl-1-methylpyridin-2(1H)-one], the Kd was < 0.01 µM. As to `Cn1c(Nc2cc3n(n2)CCCC3(F)F)nc2ncc(Oc3cnn4ccccc34)c(C#N)c21` [Example I-366, 2-((4,4-difluoro-4,5,6,7-tetrahydropyrazolo[1,5-a]pyridin-2-yl)amino)-1-methyl-6-(pyrazolo[1,5-a]pyridin-3-yloxy)-1H-imidazo[4,5-b]pyridine-7-carbonitrile], the Kd is < 0.01 µM.

The compound `COc1c(Oc2cnn3ccncc23)cnc2nc(Nc3cc(C4CC4)cn([C@H]4C[C@H](C#N)C4)c3=O)n(C)c12` [Example I-96, trans-3-(5-cyclopropyl-3-((7-methoxy-1-methyl-6-(pyrazolo[1,5-a]pyrazin-3-yloxy)-1H-imidazo[4,5-b]pyridin-2-yl)amino)-2-oxopyridin-1(2H)-yl)cyclobutane-1-carbonitrile] returned a Kd of 0.01 to 0.05 µM. As for `CN1CCC[C@@H]1c1ccc(Nc2nc3ncc(Oc4cnn5ccncc45)c(Cl)c3n2C)cc1C(F)(F)F` (single isomer, unassigned) [Example I-344], the figure is < 0.01 µM; as for `COc1c(Oc2cnn3ccncc23)cnc2nc(Nc3cc(C(F)(F)F)cn([C@@H]4CC[C@H]4O)c3=O)n(C)c12` (single isomer, unassigned) [Example I-113-b], 0.01 to 0.05 µM; as for `Cn1c(Nc2cc(C(F)(F)C(F)(F)F)n([C@H]3CCOC3)n2)nc2ncc(Oc3cnc4ccnn4c3)c(Cl)c21` [Example I-8, (S)-7-chloro-1-methyl-N-(5-(perfluoroethyl)-1-(tetrahydrofuran-3-yl)-1H-pyrazol-3-yl)-6-(pyrazolo[1,5-a]pyrimidin-6-yloxy)-1H-imidazo[4,5-b]pyridin-2-amine], 0.01 to 0.05 µM. With `COCCOc1ccc2c(Oc3cnc4nc(Nc5cc6n(n5)CCCC6(F)F)n(C)c4c3C#N)cnn2c1` [Example I-369, 2-((4,4-difluoro-4,5,6,7-tetrahydropyrazolo[1,5-a]pyridin-2-yl)amino)-6-((6-(2-methoxyethoxy)pyrazolo[1,5-a]pyridin-3-yl)oxy)-1-methyl-1H-imidazo[4,5-b]pyridine-7-carbonitrile], the Kd is < 0.01 µM. `CNc1cn2ncc(Oc3cnc4nc(Nc5cc(C(F)(F)F)cn([C@@H]6CCCOC6)c5=O)n(C)c4c3Cl)c2cn1` (single isomer, unassigned) [Example I-352-b] displayed a Kd of 0.01 to 0.05 µM. On to `CNc1nccn2ncc(Oc3cnc4nc(Nc5cc6n(n5)CCCC6(F)F)n(C)c4c3C#N)c12` [Example I-373, 2-((4,4-difluoro-4,5,6,7-tetrahydropyrazolo[1,5-a]pyridin-2-yl)amino)-1-methyl-6-((4-(methylamino)pyrazolo[1,5-a]pyrazin-3-yl)oxy)-1H-imidazo[4,5-b]pyridine-7-carbonitrile], for which the Kd was < 0.01 µM.

Regarding `COc1c(Oc2cnn3ccncc23)cnc2nc(Nc3cc(C4CC4)cn([C@H]4CC[C@@H]4O)c3=O)n(C)c12` (single isomer, unassigned) [Example I-110-a], the equilibrium dissociation constant (Kd) was < 0.01 µM.

With `CCN1CCN(Cc2ccc(Nc3nc4ncc(Oc5cnn6ccncc56)c(Cl)c4n3C)cc2C(F)(F)F)CC1` [Example I-146, 7-chloro-N-(4-((4-ethylpiperazin-1-yl)methyl)-3-(trifluoromethyl)phenyl)-1-methyl-6-(pyrazolo[1,5-a]pyrazin-3-yloxy)-1H-imidazo[4,5-b]pyridin-2-amine], the Kd is < 0.01 µM. For the compound `Cc1nc(Nc2nc3ncc(Oc4cnn5ccncc45)c(Cl)c3n2C)nc(C)c1N1CCC1` [Example I-268, N-(5-(azetidin-1-yl)-4,6-dimethylpyrimidin-2-yl)-7-chloro-1-methyl-6-(pyrazolo[1,5-a]pyrazin-3-yloxy)-1H-imidazo[4,5-b]pyridin-2-amine], the Kd fell in the range of 0.05 to 1 µM. Compound `CNc1cn2ncc(Oc3cnc4nc(Nc5cc6c(c(C(F)(F)F)c5)C(C)(C)N(C)C6=O)n(C)c4c3Cl)c2cn1` [Example I-311, 6-((7-chloro-1-methyl-6-((6-(methylamino)pyrazolo[1,5-a]pyrazin-3-yl)oxy)-1H-imidazo[4,5-b]pyridin-2-yl)amino)-2,3,3-trimethyl-4-(trifluoromethyl)isoindolin-1-one] came in with a Kd of 0.01 to 0.05 µM.

For `CNc1nccn2ncc(Oc3cnc4nc(Nc5cc(OC6CN(C)C6)cc(C(F)(F)F)c5)n(C)c4c3Cl)c12` [Example I-259, 7-chloro-1-methyl-6-((4-(methylamino)pyrazolo[1,5-a]pyrazin-3-yl)oxy)-N-(3-((1-methylazetidin-3-yl)oxy)-5-(trifluoromethyl)phenyl)-1H-imidazo[4,5-b]pyridin-2-amine], the Kd lay in the range of 0.01 to 0.05 µM.

For `Cn1c(Nc2cc(C3CC3)cn([C@@H]3CC[C@@H]3O)c2=O)nc2ncc(Oc3cnn4ccncc34)c(Cl)c21` (single isomer, unassigned) [Example I-98-a], the Kd was < 0.01 µM. Take `Cn1cc(C(F)(F)F)cc(Nc2nc3ncc(Oc4cnn5ccnc(O[C@@H]6CC[C@H]6O)c45)c(Cl)c3n2C)c1=O` (single isomer, unassigned) [Example I-139-a]: the Kd was < 0.01 µM. For the compound `C[C@@H](CO)Cn1cc(C2CC2)cc(Nc2nc3ncc(Oc4cnn5ccncc45)c(Cl)c3n2C)c1=O` (single isomer, unassigned) [Example I-81-b], the Kd is < 0.01 µM. As for `Cn1c(Nc2cc(C(F)(F)F)cn([C@H]3C[C@H](O)C3)c2=O)nc2ncc(Oc3cnn4ccncc34)c(Cl)c21` (stereo in doubt) [Example I-89, trans-3-((7-chloro-1-methyl-6-(pyrazolo[1,5-a]pyrazin-3-yloxy)-1H-imidazo[4,5-b]pyridin-2-yl)amino)-1-(3-hydroxycyclobutyl)-5-(trifluoromethyl)pyridin-2(1H)-one], the figure is < 0.01 µM; as for `CNc1nccn2ncc(Oc3cnc4nc(Oc5cc(C6CC6)cn(C(C)C)c5=O)n(C)c4c3Cl)c12` [Example I-222], 0.01 to 0.05 µM; as for `Cn1c(Nc2cc(C(F)(F)F)cn(-c3cccnc3)c2=O)nc2ncc(Oc3cnn4ccccc34)c(C#N)c21` [Example I-157, 1-methyl-2-((2-oxo-5-(trifluoromethyl)-2H-[1,3′-bipyridin]-3-yl)amino)-6-(pyrazolo[1,5-a]pyridin-3-yloxy)-1H-imidazo[4,5-b]pyridine-7-carbonitrile], < 0.01 µM.

By Kd is commonly meant the concentration at which binding is half-saturated. High values mean weaker binding, low ones tighter binding.

Values taken from patent US12043632B2, “6-heteroaryloxy benzimidazoles and azabenzimidazoles as JAK2 inhibitors” (Ajax Therapeutics, Inc., priority 2020, dated 2024).
